This is an account of results in patent publication US10577365B2, “Derivatives of quinoline as inhibitors of DYRK1A and/or DYRK1B kinases” (Felicitex Therapeutics, Inc., priority 2016, dated 2020).

Counter-ions that a name gives are not always drawn. Some results are limits rather than exact numbers.

In one assay the target is T1, DYRK1A (Homo sapiens, UniProt Q13627).
T1 construct: purchased Carna Bioscence (Carna Biosciences) 04-130
Description: DYRK1A in vitro kinase assay (ADP-Glo). Format: biochemical. Conditions: ATP 70 μM (Km), substrate 3 μM, enzyme 2 nM or 0.7 nM, 30 min, rt. On the procedure:
The compounds of the present invention were tested for their inhibitory activity against DYRK1A and DYRK1B kinases once or several times. When tested more than once, the data are reported herein as average value, wherein the average value, also referred to as the mean value, represents the sum of obtained values divided by the number of times tested.
DYRK-inhibitory activity of the compounds of the present invention was tested using the ADP-Glo™ assay as described in the following paragraphs. The procedure for determining the IC50 values with the ADP-Glo™ assay in in vitro kinase assays consists of two parts:
1. Kinase reaction performed under optimized conditions;
2. Detection of ADP as a product of the reaction using ADP-Glo™ system (Promega).
The tested compounds indicated in Table 5 below were dissolved in DMSO, then transferred to the V-bottom PP plate to perform nine serial dilutions (in order to obtain dose-response curves) in 25% DMSO, as indicated in Table 5 below.
The optimized conditions for performing DYRK1A in vitro kinase assay were as follows:
For compound testing, the following protocol was used: two mixes were prepared on ice, Mix 1 containing substrate, ATP and reaction buffer and Mix 2 containing reaction buffer and the kinase. 15 μL per well of Mix 1 was transferred to wells of a 96-well plate. Next, 2.5 μL of the pre-diluted compound to be tested was added to Mix 1, followed by the addition of 12.5 μL of Mix 2. Total reaction volume was 30 μL per well. The experiment was performed in duplicate for each data point being examined. Dose response curve for the positive control was carried out on each assay plate by adding the reference inhibitory compound staurosporine. For each test, three controls were also included: (i) 30 μL of the reaction mixture containing: reaction buffer, ATP, kinase, DMSO without substrate (quasi-positive control); (ii) 30 μL of the reaction mixture containing reaction buffer, substrate, ATP, DMSO without kinase (background control); (iii) 30 μL of the reaction mixture containing reaction buffer, substrate, kinase, ATP, DMSO (vehicle control). Final concentration of DMSO in the reaction was 2%. To detect the ADP amount produced during the kinase reaction, the commercially available kit ADP-Glo™ Kinase Assay (Promega, cat. No # V9103) was used. The protocol used for the detection was based on the Technical Bulletin of the ADP-Glo™ Kinase Assay (Promega) and was adapted to 96-well plate containing 30 μL reaction mixture as explained below.
30 μL of ADP-Glo™ Reagent was added to each well of a 96 well plate containing 30 μL of reaction mixture to terminate the kinase reaction and deplete the remaining ATP. The plate was incubated for 60 minutes on a shaker at rt. 60 μL of Kinase Detection Solution was then added to each well of 96-well plate containing 60 μL of the solution to convert ADP to ATP and to allow the newly synthesized ATP to be measured using a luciferase/luciferin reaction (ratio of kinase reaction volume to ADP Glo™ Reagent volume to Kinase Detection Solution volume was maintained at 1:1:2). The plate was incubated for 40 minutes on a shaker at rt, protected from light. Luminescence was measured in the plate reader, wherein the luminescent signal is proportional to the ADP concentration produced and thus correlates with kinase activity.
After data normalization to controls (complete reaction mix and no-substrate control) and transforming X values (test compound concentrations) using: X=log(X), IC50 values were determined, using the GraphPad Prism 6.0 [log(agonist) vs. normalized response—Variable slope].
Background: In ADP-Glo the light output rises with the ADP produced.

The target in a further assay is T2, DYRK1B (Homo sapiens, UniProt Q9Y463).
T2 construct: purchased Carna Bioscence (Carna Biosciences) 04-131
Description: DYRK1B in vitro kinase assay (ADP-Glo). Format: biochemical. Conditions: ADP-Glo assay, ATP 15 μM (Km), substrate 7 μM, enzyme 1 nM or 0.3 nM, 1 h, rt; read-out: DYRK1B IC50. On the procedure: The compounds of the present invention were tested for their inhibitory activity against DYRK1A and DYRK1B kinases once or several times. When tested more than once, the data are reported herein as average value, wherein the average value, also referred to as the mean value, represents the sum of obtained values divided by the number of times tested. DYRK-inhibitory activity of the compounds of the present invention was tested using the ADP-Glo™ assay as described in the following paragraphs. The procedure for determining the IC50 values with the ADP-Glo™ assay in in vitro kinase assays consists of two parts: […] Kinase reaction performed under optimized conditions; 2. Detection of ADP as a product of the reaction using ADP-Glo™ system (Promega). The tested compounds indicated in Table 5 below were dissolved in DMSO, then transferred to the V-bottom PP plate to perform nine serial dilutions (in order to obtain dose-response curves) in 25% DMSO, as indicated in Table 5 below. The optimized conditions for performing DYRK1B in vitro kinase assay were as follows: [table] For compound testing, the following protocol was used: two mixes were prepared on ice, Mix 1 containing substrate, ATP and reaction buffer and Mix 2 containing reaction buffer and the kinase. 15 μL per well of Mix 1 was transferred to wells of a 96-well plate. […] Total reaction volume was 30 μL per well. The experiment was performed in duplicate for each data point being examined. Dose response curve for the positive control was carried out on each assay plate by adding the reference inhibitory compound staurosporine. For each test, three controls were also included: (i) 30 μL of the reaction mixture containing: reaction buffer, ATP, kinase, DMSO without substrate (quasi-positive control); (ii) 30 μL of the reaction mixture containing reaction buffer, substrate, ATP, DMSO without kinase (background control); (iii) 30 μL of the reaction mixture containing reaction buffer, substrate, kinase, ATP, DMSO (vehicle control). Final concentration of DMSO in the reaction was 2%. To detect the ADP amount produced during the kinase reaction, the commercially available kit ADP-Glo™ Kinase Assay (Promega, cat. No # V9103) was used. The protocol used for the detection was based on the Technical Bulletin of the ADP-Glo™ Kinase Assay (Promega) and was adapted to 96-well plate containing 30 μL reaction mixture as explained below. 30 μL of ADP-Glo™ Reagent was added to each well of a 96 well plate containing 30 μL of reaction mixture to terminate the kinase reaction and deplete the remaining ATP. The plate was incubated for 60 minutes on a shaker at rt. 60 μL of Kinase Detection Solution was then added to each well of 96-well plate containing 60 μL of the solution to convert ADP to ATP and to allow the newly synthesized ATP to be measured using a luciferase/luciferin reaction (ratio of kinase reaction volume to ADP Glo™ Reagent volume to Kinase Detection Solution volume was maintained at 1:1:2). The plate was incubated for 40 minutes on a shaker at rt, protected from light. Luminescence was measured in the plate reader, wherein the luminescent signal is proportional to the ADP concentration produced and thus correlates with kinase activity. After data normalization to controls (complete reaction mix and no-substrate control) and transforming X values (test compound concentrations) using: X=log(X), IC50 values were determined, using the GraphPad Prism 6.0 [log(agonist) vs. normalized response—Variable slope].

T2 sequence (Q9Y463 whole entry): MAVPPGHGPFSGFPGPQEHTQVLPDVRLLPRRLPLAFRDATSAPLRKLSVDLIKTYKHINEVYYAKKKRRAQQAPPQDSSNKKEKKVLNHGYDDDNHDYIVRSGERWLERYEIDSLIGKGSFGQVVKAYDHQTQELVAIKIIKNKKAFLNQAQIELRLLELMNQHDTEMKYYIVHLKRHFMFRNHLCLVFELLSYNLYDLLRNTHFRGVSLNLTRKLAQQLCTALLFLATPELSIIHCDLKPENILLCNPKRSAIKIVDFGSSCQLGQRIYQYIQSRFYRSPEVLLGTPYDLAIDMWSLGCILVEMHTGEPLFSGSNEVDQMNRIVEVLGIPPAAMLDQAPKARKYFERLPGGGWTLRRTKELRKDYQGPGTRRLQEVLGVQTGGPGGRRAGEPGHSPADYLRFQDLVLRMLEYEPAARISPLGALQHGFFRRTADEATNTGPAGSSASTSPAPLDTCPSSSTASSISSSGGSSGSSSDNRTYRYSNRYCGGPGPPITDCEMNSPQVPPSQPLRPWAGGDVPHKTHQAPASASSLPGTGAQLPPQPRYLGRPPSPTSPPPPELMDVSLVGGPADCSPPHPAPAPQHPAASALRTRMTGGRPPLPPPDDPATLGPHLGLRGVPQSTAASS

In the case of `c1cnc2[nH]cc(-c3ccc4nccc(-c5ccncc5)c4c3)c2c1` [Example 7, 4-(Pyridin-4-yl)-6-{1H-pyrrolo[2,3-b]pyridin-3-yl}quinoline], the IC50 against DYRK1A and on DYRK1B was < 10 nM in each case.
Take `C=CCN(C)C(=O)c1cnc2[nH]cc(-c3ccc4nccc(Cl)c4c3)c2c1` [Example 20, 3-(4-Chloroquinolin-6-yl)-N-methyl-N-(prop-2-en-1-yl)-1H-pyrrolo[2,3-b]pyridine-5-carboxamide]: the values for the IC50 against DYRK1A and on DYRK1B were 10 to 100 nM and < 10 nM, respectively.
With `CNC(=O)c1cnc2[nH]cc(-c3ccc4ncc(N)c(N5CCC[C@H](N)C5)c4c3)c2c1` [Example 54, 3-{3-Amino-4-[(3S)-3-aminopiperidin-1-yl]quinolin-6-yl}-N-methyl-1H-pyrrolo[2,3-b]pyridine-5-carboxamide hydrochloride], the IC50 against DYRK1A and on DYRK1B was < 10 nM each time.
With `N[C@H]1CC[C@H](Nc2c([N+](=O)[O-])cnc3ccc(-c4c[nH]c5ncc(C(=O)NCc6cccnc6)cc45)cc23)CC1` [Example 59, 3-{4-[(4-Aminocyclohexyl)amino]-3-nitroquinolin-6-yl}-N-(pyridin-3-ylmethyl)-1H-pyrrolo[2,3-b]pyridine-5-carboxamide hydrochloride], the IC50 against DYRK1A and at DYRK1B was 10 to 100 nM throughout.
`C=CC1CN2CCC1CC2[C@H](O)c1ccnc2ccc(-c3c[nH]c4ncccc34)cc12` (stereo in doubt) [Example 9, {5-Ethenyl-1-azabicyclo[2.2.2]octan-2-yl}(6-{1H-pyrrolo[2,3-b]pyridin-3-yl}quinolin-4-yl)methanol]: the IC50 on DYRK1A and at DYRK1B was < 10 nM throughout.
Take `Fc1cc(-c2c[nH]c3ncccc23)cc2cccnc12` [Example 13, 8-Fluoro-6-{1H-pyrrolo[2,3-b]pyridin-3-yl}quinoline]: the IC50 at DYRK1A and on DYRK1B was < 10 nM in each case.
As for `CN1CCC(N(C)c2c([N+](=O)[O-])cnc3ccc(-c4c[nH]c5ncccc45)cc23)CC1` [Example 65, N-Methyl-N-(1-methylpiperidin-4-yl)-3-nitro-6-{1H-pyrrolo[2,3-b]pyridin-3-yl}quinolin-4-amine], the IC50 on DYRK1A and on DYRK1B was 10 to 100 nM each time.
With `CNC(=O)c1cnc2[nH]cc(-c3cc(F)c4nccc(CCc5ccccc5)c4c3)c2c1` [Example 40, 3-[8-Fluoro-4-(2-phenylethyl)quinolin-6-yl]-N-methyl-1H-pyrrolo[2,3-b]pyridine-5-carboxamide], the half-inhibitory concentration (IC50) against DYRK1A and on DYRK1B was < 10 nM each time.
As for `c1cnc2ccc(-c3c[nH]c4ncccc34)cc2c1` [Example 2, 6-{1H-Pyrrolo[2,3-b]pyridin-3-yl}quinoline], the IC50 against DYRK1A and on DYRK1B was < 10 nM in each case.
Regarding `NCCCNC(=O)c1cnc2[nH]cc(-c3cc(Cl)c4ncccc4c3)c2c1` [Example 34, N-(3-Aminopropyl)-3-(8-chloroquinolin-6-yl)-1H-pyrrolo[2,3-b]pyridine-5-carboxamide hydrochloride], the IC50 at DYRK1A and on DYRK1B was < 10 nM in each case.
Take `NC(=O)c1cnc2[nH]cc(-c3cc(F)c4ncccc4c3)c2c1` [Example 33, 3-(8-Fluoroquinolin-6-yl)-1H-pyrrolo[2,3-b]pyridine-5-carboxamide]: the IC50 on DYRK1A and on DYRK1B was < 10 nM in each case.
As to `Nc1cnc2ccc(-c3c[nH]c4ncc(C(=O)NCc5cccnc5)cc34)cc2c1` [Example 61, 3-(3-Aminoquinolin-6-yl)-N-(pyridin-3-ylmethyl)-1H-pyrrolo[2,3-b]pyridine-5-carboxamide], the IC50 against DYRK1A and at DYRK1B was < 10 nM throughout.
Regarding `COc1cc(-c2c[nH]c3ncc(C(N)=O)cc23)cc2c(-c3cccnc3)ccnc12` [Example 45, 3-[8-Methoxy-4-(pyridin-3-yl)quinolin-6-yl]-1H-pyrrolo[2,3-b]pyridine-5-carboxamide], the concentration for half-maximal inhibition (IC50) is > 100 nM against DYRK1A and 10 to 100 nM at DYRK1B.
For `CNC(=O)c1cnc2[nH]cc(-c3ccc4nccc(N5CCOCC5)c4c3)c2c1` [Example 23, N-Methyl-3-[4-(morpholin-4-yl)quinolin-6-yl]-1H-pyrrolo[2,3-b]pyridine-5-carboxamide], in that order: < 10 nM and < 10 nM.
For `CNC(=O)c1cnc2[nH]cc(-c3ccc4ncccc4c3)c2c1` [Example 25, N-Methyl-3-(quinolin-6-yl)-1H-pyrrolo[2,3-b]pyridine-5-carboxamide], in that order: < 10 nM and < 10 nM.
In the case of `O=C(NCc1ccccc1)c1cnc2[nH]cc(-c3cc(F)c4ncccc4c3)c2c1` [Example 31, N-Benzyl-3-(8-fluoroquinolin-6-yl)-1H-pyrrolo[2,3-b]pyridine-5-carboxamide], the IC50 at DYRK1A and at DYRK1B was < 10 nM in each case.
As for `CC(=O)N1CCC(Nc2c(N)cnc3ccc(-c4c[nH]c5ncccc45)cc23)CC1` [Example 66, 1-{4-[(3-Amino-6-{1H-pyrrolo[2,3-b]pyridin-3-yl}quinolin-4-yl)amino]piperidin-1-yl}ethan-1-one], the IC50 on DYRK1A and at DYRK1B was < 10 nM throughout.
Turning to `C=CCN(C)C(=O)c1cnc2[nH]cc(-c3cc(OC)c4ncccc4c3)c2c1` [Example 26, 3-(8-Methoxyquinolin-6-yl)-N-methyl-N-(prop-2-en-1-yl)-1H-pyrrolo[2,3-b]pyridine-5-carboxamide], the IC50 against DYRK1A and at DYRK1B was > 100 nM in each case.

For orientation: IC50 means the concentration needed to halve the response being measured.
